Structures can show the parent of a compound that is named as a salt. Where two headings read alike, the source gives them in different places.
What was measured:
Assay type in all cases: cell-based
5HT2A [1] = biological target: T1, 5HT2A (Homo sapiens, UniProt P28223); experiment: Calcium mobilization assay (Gq signaling), 5-HT2A; details: for type of agonism of 5-HT2A mediated signaling: EC50 profiles, FIG. 1; for Emax: read-out: maximum effect level, Gq signaling
Protocol: (§1) The Calcium No-Wash^PLUS assay monitors the activation of a GPCR via Gq secondary messenger signaling in a live cell, non-imaging assay format. Calcium mobilization in PathHunter® cell lineSOR other cell lines stably expressing Gq-Coupled GPCR5 is monitored using a calcium-sensitive dye that is loaded into cells. GPCR activation by a compound results in the release of calcium from intracellular stores and an increase in dye fluorescence that is measured in real-time.
(§2) Cell lines expressing the GPCR of interest were expanded from freezer stocks according to standard procedures. Cells were seeded in a total volume of 20 μL into black-walled, clear-bottom, Poly-D-lysine coated 384-well microplates and incubated at 37° C. for the appropriate time prior to testing. Assays were performed in 1× Dye Loading Buffer consisting of 1× Dye, 1× Additive A and 2.5 mM Probenecid in HB SS/20 mM Hepes. Probenicid was prepared fresh. Cells were loaded with dye prior to testing. Media was aspirated from cells and replaced with 20 μL Dye Loading Buffer. Cells were incubated for 30-60 minutes at 37° C. For agonist determination, cells were incubated with sample to induce response. After dye loading, cells were removed from the incubator and 10 μL HBSS/20 mM Hepes was added. 3× vehicle was included in the buffer when performing agonist dose curves to define the EC80 for subsequent antagonist assays. Cells were incubated for 30 minutes at room temperature in the dark to equilibrate plate temperature. Intermediate dilution of sample stocks was performed to generate 4× sample in assay buffer. Compound agonist activity was measured on a FLIPR Tetra (MDS). Calcium mobilization was monitored for 2 minutes and 10 μL 4× sample in HB SS/20 mM Hepes was added to the cells 5 seconds into the assay. Compound activity data was analyzed using CBIS data analysis suite (ChemInnovation, California). For agonist mode assays, percentage activity is calculated using the following formula: % Activity=100%×(mean RFU of test sample−mean RFU of vehicle control)/(mean MAX RFU control ligand−mean RFU of vehicle control). In these studies, the MAX RFU was generated by using 0.1 μM serotonin for the calcium mobilization assay.
(§3) Compounds 1-1·HCl, 1-2 and 2-1 were assessed for biological activity across a panel of 5-HT receptors including 5-HT2A, 5-HT2B, 5-HT2C and 5-HT1A. Biased signaling was assessed by monitoring both intracellular Gq-mediated calcium release, as well as beta-arrestin activation and recruitment to the GPCR.

5-HT1A = biological target: T2, 5-HT1A (Homo sapiens, UniProt P08908); experiment: Calcium mobilization assay (Gq signaling), 5-HT1A
T2 sequence (P08908 1-422): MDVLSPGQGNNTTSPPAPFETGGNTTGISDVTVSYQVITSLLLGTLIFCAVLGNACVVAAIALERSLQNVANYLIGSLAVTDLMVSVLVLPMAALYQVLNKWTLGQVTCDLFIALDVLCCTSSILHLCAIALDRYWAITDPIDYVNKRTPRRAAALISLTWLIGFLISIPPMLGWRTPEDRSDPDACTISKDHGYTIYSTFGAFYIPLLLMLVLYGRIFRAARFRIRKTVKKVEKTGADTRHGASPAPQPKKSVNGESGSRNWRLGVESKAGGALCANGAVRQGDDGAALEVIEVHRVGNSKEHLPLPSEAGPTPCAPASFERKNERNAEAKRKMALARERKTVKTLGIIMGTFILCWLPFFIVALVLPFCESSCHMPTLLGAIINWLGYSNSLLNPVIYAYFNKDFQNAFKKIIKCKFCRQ
Protocol: as §1
(§4) Cell lines expressing the GPCR of interest were expanded from freezer stocks according to standard procedures. […] Compound agonist activity was measured on a FLIPR Tetra (MDS). Calcium mobilization was monitored for 2 minutes and 10 μL 4× sample in HB SS/20 mM Hepes was added to the cells 5 seconds into the assay. Compound activity data was analyzed using CBIS data analysis suite (ChemInnovation, California). For agonist mode assays, percentage activity is calculated using the following formula: % Activity=100%×(mean RFU of test sample−mean RFU of vehicle control)/(mean MAX RFU control ligand−mean RFU of vehicle control). […]
as §3

5-HT2B = 5-HT2B (Homo sapiens, UniProt P41595); experiment: Calcium mobilization assay (Gq signaling), 5-HT2B
Chain of 5-HT2B (P41595 whole entry): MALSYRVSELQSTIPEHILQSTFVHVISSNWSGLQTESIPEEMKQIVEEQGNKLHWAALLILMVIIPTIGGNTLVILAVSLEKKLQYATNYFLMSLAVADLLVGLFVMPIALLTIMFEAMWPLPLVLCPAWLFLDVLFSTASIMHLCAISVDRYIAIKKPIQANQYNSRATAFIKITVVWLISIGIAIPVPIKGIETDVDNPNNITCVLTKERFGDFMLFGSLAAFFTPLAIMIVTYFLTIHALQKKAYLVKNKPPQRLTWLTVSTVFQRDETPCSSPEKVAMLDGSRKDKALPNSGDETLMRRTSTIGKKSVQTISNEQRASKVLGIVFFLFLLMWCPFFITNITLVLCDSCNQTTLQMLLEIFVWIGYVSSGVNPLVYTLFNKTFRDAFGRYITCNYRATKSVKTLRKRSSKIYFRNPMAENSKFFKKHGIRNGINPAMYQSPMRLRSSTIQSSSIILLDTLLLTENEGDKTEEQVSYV
Protocol: as §1
as §2, with “3× vehicle was included in the buffer when performing agonist dose curves to define the EC80 for subsequent antagonist assays. Cells were incubated for 30 minutes at room temperature in the dark to equilibrate plate temperature. Intermediate dilution of sample stocks was performed to generate 4× sample in assay buffer.” left out, “In these studies, the MAX RFU was generated by using 0.1 μM serotonin for the calcium mobilization assay.” left out
as §3

5-HT2C = biological target: T3, 5-HT2C (Homo sapiens, UniProt P28335); experiment: Calcium mobilization assay (Gq signaling), 5-HT2C
T3 sequence (P28335 33-458): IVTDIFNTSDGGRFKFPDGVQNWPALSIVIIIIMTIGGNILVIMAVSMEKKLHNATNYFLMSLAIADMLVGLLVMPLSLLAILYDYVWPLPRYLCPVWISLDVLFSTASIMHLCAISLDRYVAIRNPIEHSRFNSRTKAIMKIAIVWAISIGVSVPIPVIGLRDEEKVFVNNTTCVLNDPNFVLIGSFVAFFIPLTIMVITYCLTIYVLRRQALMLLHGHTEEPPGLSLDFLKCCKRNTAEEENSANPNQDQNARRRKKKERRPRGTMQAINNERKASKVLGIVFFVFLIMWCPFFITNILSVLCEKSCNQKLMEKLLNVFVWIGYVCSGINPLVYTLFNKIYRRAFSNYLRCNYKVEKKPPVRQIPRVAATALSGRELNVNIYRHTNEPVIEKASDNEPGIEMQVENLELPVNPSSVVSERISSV
Protocol: as §1, §4, §3

5HT2A [2] = biological target: T1, 5HT2A; experiment: PathHunter β-Arrestin assay, 5-HT2A
Protocol: PathHunter cell lines (DiscoveRx Eurofins) were expanded from freezer stocks according to standard procedures. Cells were seeded in a total volume of 20 μL into white walled, 384-well microplates and incubated at 37° C. for the appropriate time prior to testing. For agonist determination, cells were incubated with sample to induce response. Intermediate dilution of sample stocks was performed to generate 5× sample in assay buffer. 5 μL of 5× sample was added to cells and incubated at 37° C. or room temperature for 90 to 180 minutes. […] Microplates were read following signal generation with a PerkinElmer Envision™ instrument for chemiluminescent signal detection. Compound activity was analyzed using CBIS data analysis suite (ChemInnovation, California). For agonist mode assays, percentage activity was calculated using the following formula: % Activity=100%×(mean RLU of test sample−mean RLU of vehicle control)/(mean MAX control ligand−mean RLU of vehicle control). […]
as §3

5HT2A [3] = biological target: T1, 5HT2A; experiment: 5HT2A Activity (% Max Activation @ 0.3 uM)

T1 sequence (P28223 whole entry): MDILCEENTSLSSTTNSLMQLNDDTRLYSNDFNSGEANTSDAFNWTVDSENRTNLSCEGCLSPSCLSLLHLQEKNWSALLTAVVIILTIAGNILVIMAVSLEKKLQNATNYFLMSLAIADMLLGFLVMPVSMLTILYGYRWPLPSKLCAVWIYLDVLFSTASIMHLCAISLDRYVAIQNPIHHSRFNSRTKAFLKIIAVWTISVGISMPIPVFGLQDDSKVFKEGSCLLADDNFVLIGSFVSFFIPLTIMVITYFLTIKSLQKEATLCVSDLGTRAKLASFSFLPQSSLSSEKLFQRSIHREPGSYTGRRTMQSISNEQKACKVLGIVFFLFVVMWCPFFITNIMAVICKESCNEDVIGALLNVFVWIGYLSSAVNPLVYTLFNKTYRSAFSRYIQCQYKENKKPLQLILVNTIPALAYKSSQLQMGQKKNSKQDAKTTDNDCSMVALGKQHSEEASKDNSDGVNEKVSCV

SMILES	EC50 (5HT2A [1]) [µM]	type of agonism of 5-HT2A mediated signaling (5HT2A [1])	Emax (5HT2A [1]) [%]	EC50 (5-HT1A; Gq signaling, read-out: EC50, 5-HT1A (Gq signaling)) [µM]	EC50 (5-HT2B; Gq signaling, read-out: EC50, 5-HT2B (Gq signaling)) [µM]	EC50 (5-HT2C; Gq signaling, read-out: EC50, 5-HT2C (Gq signaling)) [µM]	EC50 (5HT2A [2]) [µM]	selectivity for 5-HT2A over 5-HT2B (5HT2A [1]; 5-HT2A compared to 5-HT2B) [fold]	EC50 (5-HT1A) [µM]	EC50 (5-HT2B) [µM]	activity at 5-HT2B (5-HT2B; concentrations less than 10 uM)	Emax at 0.3 µM (5HT2A [3]) [%]	EC50 (5-HT2C) [µM]
COc1ccc(OC)c2c1CCC(NCc1cc(C)cc(Cl)c1)C2 (centres unmarked) [1-1·HCl, N-(3-chloro-5-methylbenzyl)-5,8-dimethoxy-1,2,3,4-tetrahydronaphthalen-2-amine hydrochloride]	0.134	full-agonism	~100	17.2	23.2	10	0.172	–	–	–	–	–	–
COc1ccc(OC)c(CCNCc2cc(C)cc(Cl)c2)c1 [Compound 2-1, N-(3-chloro-5-methylbenzyl)-2-(2,5-dimethoxyphenyl)ethan-1-amine]	0.01	partial-agonist	~86	–	–	–	0.023	~4400	24.7	44.1	no appreciable activity	98	0.091
